Data reported in patent US4619943A, “Neolignans of Saururus cernuus L and analogues thereof” (priority 1984, dated 1986).
Where “and” joins values, the source holds several entries; their conditions need not be identical. Equal values may be shown once.

Tests used:
[1] = Suppression of aggressiveness in isolated mice; type: in vivo, male Swiss mice; details: eighty minutes after injection; for % Inhibition of Aggressiveness: 2 mg/Kg
Protocol: They were not disturbed except for replacement of food. Under these conditions, about two thirds of the mice became aggressive as manifested by vicious attacks within one minute on a nonisolated male mouse placed in their cage. Such combative mice were divided into two groups. With one group held as the control, the mice in other group were injected with SC-8 at 2 or 1 mg/Kg. The mice were tested for aggressiveness before the injection and eighty minutes after the injection. If no fighting took place with a nonisolated mouse introduced into the cage, this was regarded as inhibition of aggressiveness (P. A. J. Janssen, A. H. Jageneau and C. J. E. Niemegeers; J. Pharmacol, Exp. Ther. 129, 471 (1960)). The experiment was repeated with SC-8 at 2 mg/Kg.

[2] = test system: Meloidogyne incognita; assay: Nematicidal test: galls on tomato root system; type: in vivo; details: 10 days
Protocol: Juveniles of the nematode Meloidogyne incognita were placed in 10 ml vials containing 5 ml of sand each and were soaked with 3 ml of solutions of the test compound at different concentrations in 1% ethanol in water for 24 hours. Tomato seedlings (4-6" high, with roots partly trimmed) were placed in the vials which were then placed in a growth chamber at 28° for 10 days. The tests were watered as needed to keep the sand moist. After 10 days, the plants were removed, and the galls counted on each root system. Each sample was tested in replicates of 10, and the results were analyzed according to Duncan's multiple range test ([…]). The results for SC-8 are shown in Tables 3 and 4 which represent two different experiments spaced approximately two months apart. In the later test (Table 4), the amount of ethanol in the test solutions was varied.

[3] = test system: cabbage looper (Trichoplusia ni [Hubner]); assay: Insecticidal activity against cabbage looper; type: in vivo; details: Trichoplusia ni, 336 h, second instar larvae, 14 days
Protocol: The present compounds were tested for insecticidal activity against cabbage looper (Trichoplusia ni [Hubner]), and southern armyworm (Spodoptera eridania) at application rates of 1000 and 500 ppm. The tests were conducted in petri dishes containing a solid food source in which the test compounds had been incorporated. The petri dishes containing the treated food source were infested with second instar larvae of southern armyworms or cabbage loopers. Ten larvae per replicate and two replicates per test rate were used. Mortality data were taken 14 days after infestation.

[4] = Potentiation of pentobarbital sleeping time; type: in vivo, mice; design: Sleeping Time, Treated: unit not given here
Protocol: SC-8 has the ability to potentiate the sedative activity of pentobarbital. The procedure employed is that of Turner (R. A. Turner, Screening Methods in Pharmacology, Academic Press, New York, p. 302 (1965)), in which three groups of mice were injected ip with the drug at three levels and a control group with saline. […] The sleeping time of each was measured as the interval between the loss and recovery of the righting reflex, and activity is defined as at least a 200% prolongation of sleeping time.

## COc1ccc(C(O)C(C)Oc2ccc([C@@H]3O[C@@H](c4ccc(OC(C)C(O)c5ccc(OC)c(OC)c5)c(OC)c4)[C@@H](C)[C@@H]3C)cc2OC)cc1OC (stereo partly drawn) [SC-8, 2α,5β-bis[3-methoxy-4-{threo-3-hydroxy-3-(3,4-dimethoxyphenyl)}isopropoxyphenyl]-3α,4β-dimethyltetrahydrofuran]
[1]; 1 mg/Kg, 3 mice
  Inhibition of Aggressiveness (in words): Slight
[1]; 3 mice
  % Inhibition of Aggressiveness: > 75%
[1]; 5 mice, repeat experiment
  % Inhibition of Aggressiveness: > 75%
[2]; Table 3, 1 ppm, 1% ethanol
  Number of Galls/Root System, single replicates (1 to 10): 17 (2×) and 13 and 20 and 21 and 24 and 3 and 28 and 40 and 16
[2]; Table 3, 1 ppm, 1% ethanol, 1% ethanol control 23.7, water 28.8
  Number of Galls/Root System, Avg.: 19.8
[2]; Table 3, 5 ppm, 1% ethanol
  Number of Galls/Root System, single replicates (1 to 10): 26 and 34 and 3 and 0 (2×) and 19 and 24 and 4 and 14 and 13
[2]; Table 3, 5 ppm, 1% ethanol, 1% ethanol control 23.7, water 28.8
  Number of Galls/Root System, Avg.: 13.7
[2]; Table 3, 10 ppm, 1% ethanol
  Number of Galls/Root System, single replicates (1 to 10): 14 (2×) and 17 and 18 and 1 and 2 and 42 and 29 and 3 and 7
[2]; Table 3, 10 ppm, 1% ethanol, 1% ethanol control 23.7, water 28.8
  Number of Galls/Root System, Avg.: 14.7
[2]; Table 3, 25 ppm, 1% ethanol
  Number of Galls/Root System, single replicates (1 to 10): 3 and 10 and 11 and 18 and 17 (2×) and 26 and 15 and 12 and 24
[2]; Table 3, 25 ppm, 1% ethanol, 1% ethanol control 23.7, water 28.8
  Number of Galls/Root System, Avg.: 15.3
[2]; Table 3, 50 ppm, 1% ethanol
  Number of Galls/Root System, single replicates (1 to 10): 12 (3×) and 15 and 16 (2×) and 20 and 21 and 18 and 7
[2]; Table 3, 50 ppm, 1% ethanol, 1% ethanol control 23.7, water 28.8
  Number of Galls/Root System, Avg.: 14.9
[2]; Table 4, 1 ppm, 0.01% ethanol
  Number of Galls/Root System, single replicates (1 to 10): 7 and 10 and 18 and 14 and 23 and 32 and 1 and 5 and 16 and 9
[2]; Table 4, 1 ppm, 0.01% ethanol, water 25.5
  Number of Galls/Root System, Avg.: 13.5
[2]; Table 4, 5 ppm, 0.05% ethanol
  Number of Galls/Root System, single replicates (1 to 10): 7 and 36 and 17 and 18 and 25 and 6 and 14 and 16 and 11
[2]; Table 4, 5 ppm, 0.05% ethanol, water 25.5
  Number of Galls/Root System, Avg.: 16.7
[2]; Table 4, 10 ppm, 0.1% ethanol
  Number of Galls/Root System, single replicates (1 to 10): 10 and 22 and 34 and 23 and 25 and 26 and 24 and 0
[2]; Table 4, 10 ppm, 0.1% ethanol, water 25.5
  Number of Galls/Root System, Avg.: 18.4
[2]; Table 4, 25 ppm, 0.25% ethanol
  Number of Galls/Root System, single replicates (1 to 10): 1 and 8 and 30 and 2 and 28 and 7 and 14
[2]; Table 4, 25 ppm, 0.25% ethanol, water 25.5
  Number of Galls/Root System, Avg.: 10.1
[2]; Table 4, 50 ppm, 0.5% ethanol
  Number of Galls/Root System, single replicates (1 to 10): 12 and 4 and 0 and 22 and 8 and 1 and 5 and 34
[2]; Table 4, 50 ppm, 0.5% ethanol, water 25.5
  Number of Galls/Root System, Avg.: 8.6
[3]; 500 ppm in food
  mortality at 500 ppm: 90%
[3]; 1000 ppm in food
  mortality at 1000 ppm: 100%
[4]; SC-8 0.01 mg/Kg ip, pentobarbital 40 mg/Kg
  % Increase of Sleeping Time: 175%
[4]; SC-8 0.01 mg/Kg ip, pentobarbital 40 mg/Kg, control 12.0
  Sleeping Time, Treated: 21.0
[4]; SC-8 0.06 mg/Kg ip, pentobarbital 40 mg/Kg
  % Increase of Sleeping Time: 217%
[4]; SC-8 0.06 mg/Kg ip, pentobarbital 40 mg/Kg, control 12.0
  Sleeping Time, Treated: 26.0
[4]; SC-8 0.125 mg/Kg ip, pentobarbital 40 mg/Kg
  % Increase of Sleeping Time: 158%
[4]; SC-8 0.125 mg/Kg ip, pentobarbital 40 mg/Kg, control 12.0
  Sleeping Time, Treated: 19.0
[4]; SC-8 0.25 mg/Kg ip, pentobarbital 40 mg/Kg
  % Increase of Sleeping Time: 304%
[4]; SC-8 0.25 mg/Kg ip, pentobarbital 40 mg/Kg, control 10.8
  Sleeping Time, Treated: 32.8
[4]; SC-8 0.4 mg/Kg ip, pentobarbital 42 mg/Kg
  % Increase of Sleeping Time: 280%
[4]; SC-8 0.4 mg/Kg ip, pentobarbital 42 mg/Kg, control 16
  Sleeping Time, Treated: 44.8
[4]; SC-8 0.5 mg/Kg ip, pentobarbital 40 mg/Kg
  % Increase of Sleeping Time: 357%
[4]; SC-8 0.5 mg/Kg ip, pentobarbital 40 mg/Kg, control 10.8
  Sleeping Time, Treated: 36.6
[4]; SC-8 1.0 mg/Kg ip, pentobarbital 40 mg/Kg
  % Increase of Sleeping Time: 300%
[4]; SC-8 1.0 mg/Kg ip, pentobarbital 40 mg/Kg, control 10.8
  Sleeping Time, Treated: 32.4
[4]; SC-8 4.0 mg/Kg ip, pentobarbital 42 mg/Kg
  % Increase of Sleeping Time: 857%
[4]; SC-8 4.0 mg/Kg ip, pentobarbital 42 mg/Kg, control 16
  Sleeping Time, Treated: 140
[4]; dose range 1.0-0.05 mg/Kg
  prolongation of pentobarbital-sleeping time (conclusion): significant prolongation
[4]; summary statement, no dose
  potentiating sedatives of the pentobarbital type (summary): significant activity
